Experimental data reported in patent publication US20260209247A1, “Substituted Tricyclic Compounds” (Lupin Limited, priority 2019, published 2026).
pIC50: −log10 of the molar value.

Columns and labels:
[1] = biological target: T1, protein-protein interaction between hSOS1 and hKRASG12C (Homo sapiens, UniProt Q07889); test: KRAS-SOS1 interaction assay (HTRF); format: binding; details: GST-hSOS1 564-1049aa, HIS-hKRASG12C, read-out: KRAS-SOS1 Interaction inhibition IC50
T1 construct: GST-hSOS1, 564-1049aa expressed and purified in-house
T1 sequence (Q07889 564-1049): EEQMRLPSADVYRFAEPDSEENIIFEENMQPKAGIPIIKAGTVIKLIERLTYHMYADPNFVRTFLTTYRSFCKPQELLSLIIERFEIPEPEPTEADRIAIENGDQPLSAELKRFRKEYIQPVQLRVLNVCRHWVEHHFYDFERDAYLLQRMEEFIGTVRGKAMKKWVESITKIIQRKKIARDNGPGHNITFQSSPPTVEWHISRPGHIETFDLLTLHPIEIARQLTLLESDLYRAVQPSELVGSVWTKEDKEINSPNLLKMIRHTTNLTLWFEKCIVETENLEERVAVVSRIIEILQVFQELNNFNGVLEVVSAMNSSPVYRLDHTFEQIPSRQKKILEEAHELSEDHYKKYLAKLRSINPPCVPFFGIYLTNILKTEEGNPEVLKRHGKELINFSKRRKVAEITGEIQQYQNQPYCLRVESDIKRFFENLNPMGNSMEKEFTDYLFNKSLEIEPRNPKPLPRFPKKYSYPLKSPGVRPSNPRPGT
Method: Interaction assay was conducted to evaluate the ability of the compounds to disrupt the protein-protein interactions between hSOS1 and hKRASG12C. Inhibitory effect of compounds on GST-hSOS1, 564-1049aa expressed and purified in-house and HIS-hKRASG12C (R06-32DH, SignalChem) interaction was assessed using HTRF detection technology in biochemical assay. Compounds were pre-incubated with 10-50 nM working solution of hSOS1 per well of a 384 well plate (Perkin Elmer, Cat #6007290) for 10 min at 20° C. in the assay buffer containing 5 mM HEPES, pH 7.4, 150 mM NaCl, 10 mM EDTA, 1 mM DTT, 0.05% BSA fraction V and 0.0025% Igepal. Reaction was initiated by adding 100-300 nM working solution of hKRASG12C in assay buffer. Total assay volume was 15 μL. Reaction was continued for 30-60 min at 20° C. Then detection solution containing MAb Anti-GST-d2 (#61GSTDLA, Cisbio BioAssays) and MAb Anti-HIS-Tb (#61HISTLA, Cisbio BioAssays), all prepared in HTRF detection buffer (#61DB10RDF, Cisbio BioAssays) was added and further incubated for 30-60 min at 20° C. HTRF signal was recorded in PHERAStar microplate reader. Ratio of signal obtained at 665 nm and 620 nm was used to compute the percent inhibition of compound utilizing the following formula: […]

[2] = biological target: T2, nucleotide exchange on hKRASG12C mediated by hSOS1 (Homo sapiens, UniProt Q07889); test: Guanine nucleotide exchange assay (GNEA, HTRF); format: biochemical; details: HIS-hSOS1 564-1049aa mediated GTP loading onto GST-hKRASG12C 1-169aa, read-out: Guanine nucleotide exchange inhibition IC50
T2 construct: HIS-hSOS1, 564-1049aa mediated GTP loading onto GST-hKRASG12C; His (N); made in house
T2 sequence (Q07889 564-1049): T1 sequence (Q07889 564-1049)
Method: Example-154: Guanine nucleotide exchange assay (GNEA) GNEA assay was conducted to evaluate the effects of compounds on the nucleotide exchange on hKRASG12C mediated by hSOS1. Inhibitory effect of compounds on HIS-hSOS1, 564-1049aa mediated GTP loading onto GST-hKRASG12C, 1-169aa both expressed and purified in-house was assessed using HTRF detection technology in biochemical assay. Compounds were pre-incubated with hSOS1 working solution containing 10-50 nM hSOS1 and 200 nM EDA-GTP-DY-647P1 (Custom manufactured, Jena Biosciences) per well of a 384 well plate (Perkin Elmer, Cat #6007290) for 10 min at 20° C. in the assay buffer containing 10 mM HEPES, pH 7.4, 150 mM NaCl, 5 mM MgCl2, 1 mM DTT, 0.05% BSA fraction V and 0.0025% Igepal. Reaction was initiated by adding working solution of hKRASG12C containing 25-125 nM hKRASG12C and MAb Anti-GST-Tb (#61GSTTLA, Cisbio BioAssays) in assay buffer. Total assay volume was 15 μL. Reaction was continued for 30-60 min at 20° C. HTRF signal was recorded in PHERAStar microplate reader. Ratio of signal obtained at 665 nm and 620 nm was used to compute the percent inhibition of compound as follows.

[3] = test system: pERK after EGF stimulation in DLD1 cells; test: ERK phosphorylation assay (alphascreen pERK); format: cell-based; details: Homo sapiens, DLD-1, 2 h compound, 200 ng/ml hEGF for 5 minutes, read-out: ERK phosphorylation inhibition IC50
Method: Compounds were tested for their ability to inhibit pERK after EGF stimulation in DLD1 cells. Cells were seeded at 0.2 million cells per well in 96 well cell binding tissue culture plate in 100 μL complete media and were allowed to settle overnight (16 to 20 h). On the following day, cells were treated with various concentrations of test compounds for 2 h followed by stimulation with 200 ng/ml hEGF (diluted in PBS) for 5 minutes. Cells were then washed once with PBS and lysed in freshly prepared lysis buffer (provided with alphascreen surefire ERK1/2 p-T202/Y204 assay kit, cat no: TGRESB10K, Perkin Elmer). Lysis was carried out in plate shaker for 10-15 mins. Lysate was transferred to […] white opti-plate (Perkin Elmer) and alphascreen for pERK was carried out as per manufacturer's instructions. Plate was read after 2 h incubation in plate shaker at […] 300 RPM, 25-28° C. The difference between the unstimulated and stimulated Vehicle control is considered as 100% ERK phosphorylation, and % inhibition of compounds is calculated accordingly.

SMILES | pIC50 [1] | pIC50 [2] | pIC50 [3]
Cc1nc(N[C@H](C)c2cccc(C(F)(F)[C@](C)(O)CO)c2F)c2cc3c(cc2n1)OC(C)(C)C(=O)N3C (racemic) [Compound 23b, 4-(((R/S)-1-(3-((R/S)-1,1-difluoro-2,3-dihydroxy-2-methylpropyl)-2-fluorophenyl)ethyl)amino)-2,6,8,8-tetramethyl-6H-[1,4]oxazino[3,2-g]quinazolin-7(8H)-one] | 8.00 to 9.00 | 7.52 to 9.00 | 6.70 to 9.00
Cc1nc(N[C@H](C)c2cccc(C(F)(F)C(C)(C)O)c2F)c2cc3c(cc2n1)N(C)[C@@H](C)C(=O)N3C (racemic) [Compound 27a, (S/R)-4-(((R)-1-(3-(1,1-difluoro-2-hydroxy-2-methylpropyl)-2-fluorophenyl)ethyl)amino)-2,6,8,9-tetramethyl-8,9-dihydropyrazino[2,3-g]quinazolin-7(6H)-one] | 8.00 to 9.00 | 7.52 to 9.00 | 6.70 to 9.00
Cc1nc(N[C@H](C)c2cccc(C(F)(F)CO)c2F)c2cc3c(cc2n1)O[C@@H](C)CN3C (racemic) [Compound 36a, 2,2-difluoro-2-(2-fluoro-3-((R)-1-(((S/R)-2,6,8-trimethyl-7,8-dihydro-6H-[1,4]oxazino[3,2-g]quinazolin-4-yl)amino)ethyl)phenyl)ethan-1-ol] | 8.00 to 9.00 | 7.52 to 9.00 | 6.70 to 9.00
COC[C@](C)(O)C(F)(F)c1cccc([C@@H](C)Nc2nc(C)nc3cc4c(cc23)N(C)C(=O)C(C)(C)O4)c1F (racemic) [Compound 53a, 4—(((R)-1-(3-((S/R)-1,1-difluoro-2-hydroxy-3-methoxy-2-methylpropyl)-2-fluorophenyl)ethyl)amino)-2,6,8,8-tetramethyl-6H-[1,4]oxazino[3,2-g]quinazolin-7(8H)-one] | 8.00 to 9.00 | 7.52 to 9.00 | 6.70 to 9.00
Cc1nc(N[C@H](C)c2cccc(C(F)(F)C(C)(C)O)c2F)c2cc3c(cc2n1)N(C)C(=O)C3C (mixture of isomers) [Compound 95, (R&S)-4-(((R)-1-(3-(1,1-difluoro-2-hydroxy-2-methylpropyl)-2-fluorophenyl)ethyl)amino)-2,6,8-trimethyl-6,8-dihydro-7H-pyrrolo[3,2-g]quinazolin-7-one] | 7.60 to 7.96 | 6.89 to 7.51 | 6.70 to 9.00
CO[C@]1(C)C(=O)N(C)c2cc3nc(C)nc(N[C@H](C)c4cccc(C(F)(F)C(C)(C)O)c4F)c3cc21 (racemic) [Compound 96a, (S/R)-4-(((R)-1-(3-(1,1-difluoro-2-hydroxy-2-methylpropyl)-2-fluorophenyl)ethyl)amino)-6-methoxy-2,6,8-trimethyl-6,8-dihydro-7H-pyrrolo[3,2-g]quinazolin-7-one] | 7.60 to 7.96 | 6.89 to 7.51 | 6.70 to 9.00
COCC1(C)C(=O)N(C)c2cc3c(N[C@H](C)c4cccc(C(F)(F)C(C)(C)O)c4F)nc(C)nc3cc21 (mixture of isomers) [Compound 98, (R&S)-4-(((R)-1-(3-(1,1-difluoro-2-hydroxy-2-methylpropyl)-2-fluorophenyl)ethyl)amino)-8-(methoxymethyl)-2,6,8-trimethyl-6,8-dihydro-7H-pyrrolo[2,3-g]quinazolin-7-one] | 7.60 to 7.96 | 7.52 to 9.00 | 6.70 to 9.00
COC[C@@]1(C)C(=O)N(C)c2cc3c(N[C@H](C)c4cccc(C(F)(F)C(C)(C)O)c4F)nc(C)nc3cc21 (racemic) [Compound 98b, (S/R)-4-(((R)-1-(3-(1,1-difluoro-2-hydroxy-2-methylpropyl)-2-fluorophenyl)ethyl)amino)-8-(methoxymethyl)-2,6,8-trimethyl-6,8-dihydro-7H-pyrrolo[2,3-g]quinazolin-7-one] | 7.60 to 7.96 | 6.89 to 7.51 | 6.70 to 9.00
Cc1nc(N[C@H](C)c2cccc(C(F)(F)C(C)(C)O)c2F)c2cc3c(cc2n1)C(C)C(=O)N3C (mixture of isomers) [Compound 99, (R&S)-4-(((R)-1-(3-(1,1-difluoro-2-hydroxy-2-methylpropyl)-2-fluorophenyl)ethyl)amino)-2,6,8-trimethyl-6,8-dihydro-7H-pyrrolo[2,3-g]quinazolin-7-one] | 8.00 to 9.00 | 7.52 to 9.00 | 6.70 to 9.00
CCO[C@]1(C)C(=O)N(C)c2cc3c(N[C@H](C)c4cccc(C(F)(F)C(C)(C)O)c4F)nc(C)nc3cc21 (racemic) [Compound 121b, (S/R)-4-(((R)-1-(3-(1,1-difluoro-2-hydroxy-2-methylpropyl)-2-fluorophenyl)ethyl)amino)-8-ethoxy-2,6,8-trimethyl-6,8-dihydro-7H-pyrrolo[2,3-g]quinazolin-7-one] | 8.00 to 9.00 | 7.52 to 9.00 | 6.70 to 9.00
CO[C@]1(C)C(=O)N(C)c2cc3c(N[C@H](C)c4cccc(C(F)(F)[C@](C)(O)CN(C)C)c4F)nc(C)nc3cc21 (racemic) [Compound 135a, (S/R)-4-(((R)-1-(3-((S/R)-3-(dimethylamino)-1,1-difluoro-2-hydroxy-2-methylpropyl)-2-fluorophenyl)ethyl)amino)-8-methoxy-2,6,8-trimethyl-6,8-dihydro-7H-pyrrolo[2,3-g]quinazolin-7-one] | 8.00 to 9.00 | 7.52 to 9.00 | 6.70 to 9.00
CO[C@]1(C)C(=O)N(C)c2cc3c(N[C@H](C)c4cccc(C(F)(F)[C@@](C)(O)CN(C)C)c4F)nc(C)nc3cc21 (racemic) [Compound 135b, (S/R)-4-(((R)-1-(3-((R/S)-3-(dimethylamino)-1,1-difluoro-2-hydroxy-2-methylpropyl)-2-fluorophenyl)ethyl)amino)-8-methoxy-2,6,8-trimethyl-6,8-dihydro-7H-pyrrolo[2,3-g]quinazolin-7-one] | 8.00 to 9.00 | 6.89 to 7.51 | 6.70 to 9.00
Cc1nc(N[C@H](C)c2cccc(C(F)(F)[C@@](C)(O)CO)c2F)c2cc3c(cc2n1)OC(C)(C)C(=O)N3C (single isomer, unassigned) [Compound 23a, 4-(((R/S)-1-(3-((S/R)-1,1-difluoro-2,3-dihydroxy-2-methylpropyl)-2-fluorophenyl)ethyl)amino)-2,6,8,8-tetramethyl-6H-[1,4]oxazino[3,2-g]quinazolin-7(8H)-one] | 8.00 to 9.00 | 7.52 to 9.00 | 6.70 to 9.00
Cc1nc(N[C@H](C)c2cccc(C(F)(F)C(C)(C)O)c2F)c2cc3c(cc2n1)N(C)C(C)C(=O)N3C (single isomer, unassigned) [Compound 27b] | 8.00 to 9.00 | 7.52 to 9.00 | 6.70 to 9.00
